Measured values from patent publication US20260070945A1, “MACROCYCLIC IMMUNOMODULATORS” (Bristol-Myers Squibb Company, priority 2022, published 2026).
*1 amine or outer side, *2 acyl side, *3 side chain or, on linkers, in order; H or OH if unused. Where a SMILES comes first, the peptide text is derived from it. Bridges are numbered along the chain shown (N, C = ends). [ ]: non-standard residue; d: D form. The star is where a group is joined. ξ: configuration not given here. Phe(4-COOH) = N[C@@H](Cc1ccc(C(=O)O)cc1)C(=O)O; Bip = N[C@@H](Cc1ccc(-c2ccccc2)cc1)C(=O)O; Phe(3-Me) = Cc1cccc(C[C@H](N)C(=O)O)c1; NMeAEEA = CN(CCOCCOCC(=O)[*:2])[*:1]; Cha = N[C@@H](CC1CCCCC1)C(=O)O; Cit = NC(=O)NCCC[C@H](N)C(=O)O; NMeN = CN[C@@H](CC(N)=O)C(=O)O; Thr(3ξ) = CC(O)[C@H](N)C(=O)O; 12Ado = NCCCCCCCCCCCC(=O)O; hSer = N[C@@H](CCO)C(=O)O; Carboxymethyl = O=C(O)C*; NMeA = CN[C@@H](C)C(=O)O; Aun = NCCCCCCCCCCC(=O)O; Dab = NCC[C@H](N)C(=O)O; Dap = NC[C@H](N)C(=O)O; AEEA = NCCOCCOCC(=O)O

target: T1, PD-1/PD-L1 interaction (PE-labeled human PD-L1-Ig binding to Jurkat cell line over-expressing human PD-1) (Homo sapiens, UniProt Q15116); assay: Jurkat-PD-1 Cell Binding High-Content Screening Assay (CBA); conditions: Jurkat-hPD-1 cells, PE-labeled PD-L1-Ig 20 nM final; read-out: Jurkat HPD1 PDL1 IC50
T1 construct: expressed in transfected cells; host or cells: Jurkat
T1 sequence (Q15116 25-288): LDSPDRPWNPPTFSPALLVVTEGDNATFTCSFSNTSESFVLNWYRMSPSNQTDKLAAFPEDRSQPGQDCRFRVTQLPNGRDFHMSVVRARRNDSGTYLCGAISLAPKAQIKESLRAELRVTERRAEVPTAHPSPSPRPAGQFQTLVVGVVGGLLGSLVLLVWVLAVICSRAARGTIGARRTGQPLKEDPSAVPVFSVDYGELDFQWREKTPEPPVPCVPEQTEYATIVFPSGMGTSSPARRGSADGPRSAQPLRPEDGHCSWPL
Summary of the method: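 Compound is added first to the PD-1-expressing Jurkat cells and held 2 h at 37 °C in serum-containing DMEM. The fluorescent PD-L1 fusion follows at 20 nM final for 1 h. Fixed, Hoechst-stained cells are then imaged for bound label.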

IC50 [nM]	SMILES
21.9	Cc1cccc(C[C@@H]2NC(=O)[C@H](CC(=O)O)NC(=O)[C@H](Cc3ccc(OCC(=O)O)cc3)NC(=O)[C@H](C(C)O)NC(=O)CSC[C@@H](C(=O)N(C)CCOCCOCC(=O)NCCCCCCCCCCC(=O)O)NC(=O)[C@H](C(C)O)NC(=O)[C@H](C(C)C)NC(=O)[C@H](CC3CCCCC3)NC(=O)[C@H](CCN)NC(=O)[C@@H](CC(C)C)NC(=O)[C@H](C)N(C)C(=O)[C@H](C(C)C)NC(=O)[C@H](Cc3ccc(-c4ccccc4)cc3)NC(=O)[C@H](C(C)C)NC2=O)c1 (stereo partly drawn) [Example 2363] ({CH2CO}-[Thr(3ξ)]Y(Carboxymethyl)D[Phe(3-Me)]V[Bip]V[NMeA][dL][Dab][Cha]V[Thr(3ξ)]C[NMeAEEA][Aun]-OH; thioether N-14)
36.3	Cc1cccc(C[C@@H]2NC(=O)[C@H](CC(=O)O)NC(=O)[C@H](Cc3ccc(OCC(=O)O)cc3)NC(=O)[C@H](C(C)O)NC(=O)CSC[C@@H](C(=O)N(C)CCOCCOCC(=O)NCCCCCCCCCCC(=O)O)NC(=O)[C@H](CCO)NC(=O)[C@H](C(C)C)NC(=O)[C@H](CC3CCCCC3)NC(=O)[C@H](CCN)NC(=O)[C@@H](CC(C)C)NC(=O)[C@H](C)N(C)C(=O)[C@H](C(C)C)NC(=O)[C@H](Cc3ccc(-c4ccccc4)cc3)NC(=O)[C@H](C(C)C)NC2=O)c1 (stereo partly drawn) [Example 2364] ({CH2CO}-[Thr(3ξ)]Y(Carboxymethyl)D[Phe(3-Me)]V[Bip]V[NMeA][dL][Dab][Cha]V[hSer]C[NMeAEEA][Aun]-OH; thioether N-14)
67.1	Cc1cccc(C[C@@H]2NC(=O)[C@H](CC(=O)O)NC(=O)[C@H](Cc3ccc(C(=O)O)cc3)NC(=O)[C@H](Cc3ccc(OCC(=O)O)cc3)NC(=O)CSC[C@@H](C(=O)NCCOCCOCC(=O)NCCCCCCCCCCCC(=O)O)NC(=O)[C@H](CCCCN)NC(=O)[C@H](C(C)C)NC(=O)[C@H](CC3CCCCC3)NC(=O)[C@H](Cc3cnc[nH]3)NC(=O)[C@@H](CC(C)C)NC(=O)[C@H](C)N(C)C(=O)[C@H](CCCNC(N)=O)NC(=O)[C@H](Cc3ccc(-c4ccccc4)cc3)NC(=O)[C@H](C(C)C)NC2=O)c1 [Example 2367] ({CH2CO}-Y(Carboxymethyl)[Phe(4-COOH)]D[Phe(3-Me)]V[Bip][Cit][NMeA][dL]H[Cha]VKC[AEEA][12Ado]-OH; thioether N-14)
35.8	Cc1cccc(C[C@@H]2NC(=O)[C@H](CC(=O)O)NC(=O)[C@H](Cc3ccc(OCC(=O)O)cc3)NC(=O)[C@H](CCCNC(=N)N)NC(=O)CSC[C@@H](C(=O)N[C@@H](CCN)C(=O)NCCCCCCCCCCC(=O)O)NC(=O)[C@H](C(C)O)NC(=O)[C@H](CO)NC(=O)[C@H](CC3CCCCC3)NC(=O)[C@H](CCN)NC(=O)[C@@H](CC(C)C)NC(=O)[C@H](C)N(C)C(=O)[C@H](Cc3ccc(OCC(=O)O)cc3)NC(=O)[C@H](Cc3ccc(-c4ccccc4)cc3)NC(=O)[C@H](Cc3ccc(OCC(=O)O)cc3)NC2=O)c1 (stereo partly drawn) [Example 2370] ({CH2CO}-RY(Carboxymethyl)D[Phe(3-Me)]Y(Carboxymethyl)[Bip]Y(Carboxymethyl)[NMeA][dL][Dab][Cha]S[Thr(3ξ)]C[Dab][Aun]-OH; thioether N-14)
26.8	CC(=O)NCCCC[C@@H]1NC(=O)[C@H](Cc2ccc(-c3ccccc3)cc2)NC(=O)[C@H](C(C)C)NC(=O)[C@H](Cc2cccc(C)c2)NC(=O)[C@H](CC(=O)O)NC(=O)[C@H](Cc2ccc(OCC(=O)O)cc2)NC(=O)[C@H](Cc2ccc(OCC(=O)O)cc2)NC(=O)CSC[C@@H](C(=O)N[C@@H](CCN)C(=O)NCCCCCCCCCCC(=O)O)NC(=O)[C@H](CO)NC(=O)[C@H](C(C)O)NC(=O)[C@H](CC2CCCCC2)NC(=O)[C@H](CCN)NC(=O)[C@@H](CC(C)C)NC(=O)[C@H](C)N(C)C1=O (stereo partly drawn) [Example 2371] ({CH2CO}-Y(Carboxymethyl)Y(Carboxymethyl)D[Phe(3-Me)]V[Bip]K(Ac)[NMeA][dL][Dab][Cha][Thr(3ξ)]SC[Dab][Aun]-OH; thioether N-14)
20.9	Cc1cccc(C[C@@H]2NC(=O)[C@H](CC(=O)O)NC(=O)[C@H](Cc3ccc(OCC(=O)O)cc3)NC(=O)[C@H](Cc3ccc(OCC(=O)O)cc3)NC(=O)CSC[C@@H](C(=O)N[C@@H](CCCCN)C(=O)NCCCCCCCCCCC(=O)O)NC(=O)[C@H](CN)NC(=O)[C@H](C(C)C)NC(=O)[C@H](CC3CCCCC3)NC(=O)[C@H](CCN)NC(=O)[C@@H](CC(C)C)NC(=O)[C@H](C)N(C)C(=O)[C@H](C(C)C)NC(=O)[C@H](Cc3ccc(-c4ccccc4)cc3)NC(=O)[C@H](C(C)C)NC2=O)c1 [Example 2376] ({CH2CO}-Y(Carboxymethyl)Y(Carboxymethyl)D[Phe(3-Me)]V[Bip]V[NMeA][dL][Dab][Cha]V[Dap]CK[Aun]-OH; thioether N-14)
38.9	CC(=O)NCCCC[C@@H]1NC(=O)[C@H](Cc2ccc(-c3ccccc3)cc2)NC(=O)[C@H](Cc2ccc(O)cc2)NC(=O)[C@H](Cc2cccc(C)c2)NC(=O)[C@H](CC(=O)O)NC(=O)[C@H](Cc2ccc(OCC(=O)O)cc2)NC(=O)[C@H](Cc2ccc(OCC(=O)O)cc2)NC(=O)CSC[C@@H](C(=O)NCCCCCCCCCCC(=O)O)NC(=O)[C@H](C(C)O)NC(=O)[C@H](C(C)C)NC(=O)[C@H](CC2CCCCC2)NC(=O)[C@H](CCN)NC(=O)[C@@H](CC(C)C)NC(=O)[C@H](C)N(C)C1=O (stereo partly drawn) [Example 2379] ({CH2CO}-Y(Carboxymethyl)Y(Carboxymethyl)D[Phe(3-Me)]Y[Bip]K(Ac)[NMeA][dL][Dab][Cha]V[Thr(3ξ)]C[Aun]-OH; thioether N-14)
14.6	CC(=O)NCCCC[C@@H]1NC(=O)[C@H](Cc2ccc(-c3ccccc3)cc2)NC(=O)[C@H](C(C)C)NC(=O)[C@H](Cc2cccc(C)c2)NC(=O)[C@H](CC(=O)O)NC(=O)[C@H](Cc2ccc(OCC(=O)O)cc2)NC(=O)[C@H](CCCNC(=N)N)NC(=O)CSC[C@@H](C(=O)N[C@@H](CCN)C(=O)NCCCCCCCCCCC(=O)O)NC(=O)[C@H](C(C)O)NC(=O)[C@H](C(C)C)NC(=O)[C@H](CC2CCCCC2)NC(=O)[C@H](CCN)NC(=O)[C@@H](CC(C)C)NC(=O)[C@H](C)N(C)C1=O (stereo partly drawn) [Example 2380] ({CH2CO}-RY(Carboxymethyl)D[Phe(3-Me)]V[Bip]K(Ac)[NMeA][dL][Dab][Cha]V[Thr(3ξ)]C[Dab][Aun]-OH; thioether N-14)
33.8	Cc1cccc(C[C@@H]2NC(=O)[C@H](CC(=O)O)NC(=O)[C@H](Cc3ccc(OCC(=O)O)cc3)NC(=O)[C@H](CCCNC(=N)N)NC(=O)CSC[C@@H](C(=O)N(C)[C@@H](CC(N)=O)C(=O)NCCCCCCCCCCC(=O)O)NC(=O)[C@H](C(C)O)NC(=O)[C@H](C(C)C)NC(=O)[C@H](CC3CCCCC3)NC(=O)[C@H](CCN)NC(=O)[C@@H](CC(C)C)NC(=O)[C@H](C)N(C)C(=O)[C@H](C(C)C)NC(=O)[C@H](Cc3ccc(-c4ccccc4)cc3)NC(=O)[C@H](C(C)C)NC2=O)c1 (stereo partly drawn) [Example 2381] ({CH2CO}-RY(Carboxymethyl)D[Phe(3-Me)]V[Bip]V[NMeA][dL][Dab][Cha]V[Thr(3ξ)]C[NMeN][Aun]-OH; thioether N-14)
15.3	Cc1cccc(C[C@@H]2NC(=O)[C@H](CC(=O)O)NC(=O)[C@H](Cc3ccc(OCC(=O)O)cc3)NC(=O)[C@H](Cc3ccc(OCC(=O)O)cc3)NC(=O)CSC[C@@H](C(=O)N[C@@H](CO)C(=O)NCCCCCCCCCCC(=O)O)NC(=O)[C@H](C(C)O)NC(=O)[C@H](C(C)O)NC(=O)[C@H](CC3CCCCC3)NC(=O)[C@H](CCN)NC(=O)[C@@H](CC(C)C)NC(=O)[C@H](C)N(C)C(=O)[C@H](CCCNC(=N)N)NC(=O)[C@H](Cc3ccc(-c4ccccc4)cc3)NC(=O)[C@H](C(C)C)NC2=O)c1 (stereo partly drawn) [Example 2383] ({CH2CO}-Y(Carboxymethyl)Y(Carboxymethyl)D[Phe(3-Me)]V[Bip]R[NMeA][dL][Dab][Cha][Thr(3ξ)][Thr(3ξ)]CS[Aun]-OH; thioether N-14)
37.1	Cc1cccc(C[C@@H]2NC(=O)[C@H](CC(=O)O)NC(=O)[C@H](Cc3ccc(OCC(=O)O)cc3)NC(=O)[C@H](Cc3ccc(OCC(=O)O)cc3)NC(=O)CSC[C@@H](C(=O)N[C@@H](CO)C(=O)NCCCCCCCCCCC(=O)O)NC(=O)[C@H](C(C)O)NC(=O)[C@H](CN)NC(=O)[C@H](CC3CCCCC3)NC(=O)[C@H](CCN)NC(=O)[C@@H](CC(C)C)NC(=O)[C@H](C)N(C)C(=O)[C@H](CCCNC(=N)N)NC(=O)[C@H](Cc3ccc(-c4ccccc4)cc3)NC(=O)[C@H](C(C)C)NC2=O)c1 (stereo partly drawn) [Example 2384] ({CH2CO}-Y(Carboxymethyl)Y(Carboxymethyl)D[Phe(3-Me)]V[Bip]R[NMeA][dL][Dab][Cha][Dap][Thr(3ξ)]CS[Aun]-OH; thioether N-14)
8.3	CC(=O)NCCCC[C@@H]1NC(=O)[C@H](Cc2ccc(-c3ccccc3)cc2)NC(=O)[C@H](C(C)C)NC(=O)[C@H](Cc2cccc(C)c2)NC(=O)[C@H](CC(=O)O)NC(=O)[C@H](Cc2ccc(OCC(=O)O)cc2)NC(=O)[C@H](CCCNC(=N)N)NC(=O)CSC[C@@H](C(=O)N[C@H](CCC(=O)O)C(=O)NCCCCCCCCCCCC(=O)O)NC(=O)[C@H](C(C)O)NC(=O)[C@H](C(C)C)NC(=O)[C@H](CC2CCCCC2)NC(=O)[C@H](CCN)NC(=O)[C@@H](CC(C)C)NC(=O)[C@H](C)N(C)C1=O (stereo partly drawn) [Example 2388] ({CH2CO}-RY(Carboxymethyl)D[Phe(3-Me)]V[Bip]K(Ac)[NMeA][dL][Dab][Cha]V[Thr(3ξ)]C[dE][12Ado]-OH; thioether N-14)
29.6	Cc1cccc(C[C@@H]2NC(=O)[C@H](CC(=O)O)NC(=O)[C@H](Cc3ccc(OCC(=O)O)cc3)NC(=O)[C@H](CCCNC(=N)N)NC(=O)CSC[C@@H](C(=O)N[C@H](CCC(=O)O)C(=O)NCCCCCCCCCCC(=O)O)NC(=O)[C@H](C(C)O)NC(=O)[C@H](C(C)C)NC(=O)[C@H](CC3CCCCC3)NC(=O)[C@H](CCN)NC(=O)[C@@H](CC(C)C)NC(=O)[C@H](C)N(C)C(=O)[C@H](CCCNC(N)=O)NC(=O)[C@H](Cc3ccc(-c4ccccc4)cc3)NC(=O)[C@H](C(C)C)NC2=O)c1 (stereo partly drawn) [Example 2392] ({CH2CO}-RY(Carboxymethyl)D[Phe(3-Me)]V[Bip][Cit][NMeA][dL][Dab][Cha]V[Thr(3ξ)]C[dE][Aun]-OH; thioether N-14)
